How the values were obtained:
Experiment in all cases: In vitro antibacterial evaluation: minimum inhibitory concentration (MIC), broth dilution method
Assay type in all cases: cell-based
Streptococcus sp. = details: broth dilution, 5×10^5 CFU/mL, 18 hours at 35° C.
Method: (§1) The minimum inhibitory concentration (MIC), the lowest concentration of the antibiotic which inhibits growth of the test organism, is determined by the broth dilution method using Muller-Hinton II […] (Baltimore Biological Laboratories) following the recommendations of the National Committee for Clinical Laboratory Standards [Methods for dilution antimicrobial susceptibility tests for bacteria that grow aerobically, approved standard M7-A2, National Committee for Clinical Laboratory Standards, Villanova, Pa].
(§2) An inoculum level of 5×10^5 CFU/mL, and a range of antibiotic concentrations (64-0.06 μg/mL) is used. […] The test organisms include a spectrum of Gram-positive bacteria comprised of Staphylococcus sp., Streptococcus sp. and Enterococcus sp. These organisms include recent clinical isolates that are resistant to methicillin, penicillin and/or vancomycin.

Staphylococcus sp. = details: for MIC Staphylococcus aureus (ATCC 29213): strain ATCC 29213; for MIC Staphylococcus aureus (GC 1131): strain GC 1131; for MIC Staphylococcus aureus (GC 4541): strain GC 4541; for MIC Staphylococcus aureus (GC 4542): strain GC 4542; for MIC Staphylococcus aureus-SMITH (GC 4543): strain GC 4543; for MIC Staphylococcus aureus (GC 4544): strain GC 4544; for MIC Staphylococcus aureus (GC 4545): strain GC 4545; for MIC Staphylococcus haemolyticus (GC 4546): strain GC 4546; for MIC Coagulase Negative Staphylococcus (GC 4547): strain GC 4547; for MIC Coagulase Negative Staphylococcus (GC 4548): strain GC 4548; for MIC Coagulase Negative Staphylococcus (GC 4549): strain GC 4549; for MIC Coagulase Negative Staphylococcus (GC 4551): strain GC 4551; for MIC Coagulase Negative Staphylococcus (ID-3941): strain ID-3941
Method: as §1, §2

Enterococcus sp. = details: broth dilution, 5×10^5 CFU/mL, 18 hours at 35° C.
Method: as §1, §2

Escherichia coli = details: 5×10^5 CFU/mL, 18 hours at 35° C.
Method: as §1, §2

[1] = broth dilution, 18 hours at 35° C.

CC(c1ccccc1)C1NC(=O)CNC(=O)C(CO)NC(=O)C(C(O)C2CNC(=N)N2C2OC(CO)C(O)C(O)C2O)NC(=O)C(C(O)C2CNC(=N)N2)NC(=O)C(Cc2ccc(OC3OC(CO)C(OC4OC5COC(CC(C)(C)C)OC5C(O)C4O)C(O)C3O)cc2)NC1=O (stereo not drawn) [Example 110]
1 µg/mL: MIC Staphylococcus aureus (ATCC 29213) (Staphylococcus sp.) | MIC Staphylococcus aureus (ATCC 29213) (Staphylococcus sp.; [1]) | MIC Staphylococcus aureus (GC 1131) (Staphylococcus sp.) | MIC Staphylococcus aureus (GC 1131) (Staphylococcus sp.; [1]) | MIC Staphylococcus aureus (GC 4541) (Staphylococcus sp.) | MIC Staphylococcus aureus (GC 4541) (Staphylococcus sp.; [1]) | MIC Staphylococcus aureus (GC 4542) (Staphylococcus sp.) | MIC Staphylococcus aureus (GC 4542) (Staphylococcus sp.; [1]) | MIC Staphylococcus aureus-SMITH (GC 4543) (Staphylococcus sp.; 18 hours at 35° C.) | MIC Staphylococcus aureus-SMITH (GC 4543) (Staphylococcus sp.; [1]) | MIC Staphylococcus aureus (GC 4545) (Staphylococcus sp.) | MIC Staphylococcus aureus (GC 4545) (Staphylococcus sp.; [1]) | MIC Staphylococcus haemolyticus (GC 4546) (Staphylococcus sp.) | MIC Staphylococcus haemolyticus (GC 4546) (Staphylococcus sp.; [1]) | MIC Coagulase Negative Staphylococcus (GC 4547) (Staphylococcus sp.) | MIC Coagulase Negative Staphylococcus (GC 4547) (Staphylococcus sp.; [1]) | MIC Coagulase Negative Staphylococcus (GC 4548) (Staphylococcus sp.) | MIC Coagulase Negative Staphylococcus (GC 4548) (Staphylococcus sp.; [1]) | MIC Coagulase Negative Staphylococcus (GC 4549) (Staphylococcus sp.) | MIC Coagulase Negative Staphylococcus (GC 4549) (Staphylococcus sp.; [1]) | MIC Coagulase Negative Staphylococcus (GC 4551) (Staphylococcus sp.) | MIC Coagulase Negative Staphylococcus (GC 4551) (Staphylococcus sp.; [1]) | MIC Coagulase Negative Staphylococcus (ID-3941) (Staphylococcus sp.) | MIC Coagulase Negative Staphylococcus (ID-3941) (Staphylococcus sp.; [1])
4 µg/mL: MIC Enterococccus avium (GC 4558) (Enterococcus sp.) | MIC Enterococccus faecalis (ATCC 29212) (Enterococcus sp.) | MIC Enterococccus faecalis (GC 4552) (Enterococcus sp.) | MIC Enterococccus faecalis (GC 4553) (Enterococcus sp.) | MIC Enterococccus faecium (GC 2243) (Enterococcus sp.)
<0.5 µg/mL: MIC Streptococcus agalactiae (GC 4564) (Streptococcus sp.) | MIC Streptococcus pneumoniae (GC 4565) (Streptococcus sp.) | MIC Streptococcus pyogenes (ID-3187) (Streptococcus sp.)
64 µg/mL: MIC Escherichia coli (ATCC 25922) (Escherichia coli)
2 µg/mL: MIC Staphylococcus aureus (GC 4544) (Staphylococcus sp.) | MIC Staphylococcus aureus (GC 4544) (Staphylococcus sp.; [1]) | MIC Enterococccus faecalis (GC 4554) (Enterococcus sp.) | MIC Enterococccus faecium (GC 4556) (Enterococcus sp.) | MIC Enterococccus faecium (GC 4557) (Enterococcus sp.) | MIC Enterococcus faecalis (GC 2242) (Enterococcus sp.)
